Reference: patent US20260001888A1, “PYRAZOLOPYRIMIDINE PDE9 INHIBITORS” (Merck Sharp & Dohme LLC, priority 2018, published 2026)

What follows are compounds tested against Human PDE9 (PDE9A2) (Homo sapiens (Human), UniProt O76083) (assay: PDE9 IMAP fluorescence polarization (FP) inhibition assay). Details: apparent inhibition constant; human PDE9A2, FAM-cGMP substrate 50 nM, room temperature.
Format: biochemical
Protocol: The activity of the compounds in accordance with the present invention as PDE9 inhibitors may be readily determined without undue experimentation using a fluorescence polarization (FP) methodology that is well known in the art (Huang, W., et al., J. Biomol Screen, 2002, 7:215).
In a typical experiment the PDE9 inhibitory activity of the compounds of the present invention was determined in accordance with the following experimental method.
Human PDE9 (PDE9A2, GenBank Accession No. NM_001001567), full length with N-terminal GST tag, was purchased from BPS Bioscience. The fluorescence polarization assay for cyclic nucleotide phosphodiesterases was performed using an IMAP® FP kit supplied by Molecular Devices, Sunnyvale, CA (product #R8139). IMAP® technology has been applied previously to phosphodiesterase assays (Huang, W., et al., J. Biomol Screen, 2002, 7:215). Assays were performed at room temperature in 384-well microtiter plates with an incubation volume of 20.2 μL. Solutions of test compounds were prepared in DMSO and serially diluted with DMSO to yield 8 μL of each of 10 solutions differing by 3-fold in concentration, at 32 serial dilutions per plate. 100% inhibition is determined using a known PDE9 inhibitor, such as 1-(2-chlorophenyl)-6-[(2R)-3,3,3-trifluoro-2-methylpropyl]-1,5-dihydro-4H-pyrazolo[3,4-d]pyrimidine-4-one (BAY 73-6691) (Wunder et al, Mol. Pharmacol., 2005, 68 (6): 1775-81), (6-[(3S,4S)-4-methyl-1-(pyrimidin-2-ylmethyl) pyrrolidin-3-yl]-1-(tetrahydro-2H-pyran-4-yl)-1,5-dihydro-4H-pyrazolo[3,4-d]pyrimidin-4-one (PF-04447943) (Wager et al., ACS Chemical Neuroscience, 2010, 1:435-449). 0% of inhibition is determined by using DMSO (1% final concentrations). A Labcyte Echo 555 (Labcyte, Sunnyvale, CA) is used to dispense 200 nL from each well of the titration plate to the 384 well assay plate. Human PDE9A2 membrane preps were diluted to 1 ng/ml. […] PDE9 enzyme mix and compounds were mixed and incubated at room temperature for 30 min. Following which, FAMcGMP substrate was added, shaken and incubated for an additional 60 min at room temperature. The final concentration of human PDE9 membrane preparations were 0.5 ng/ml. The final concentration of FAM-cGMP was 50 nM. After the incubation period, the enzymatic reaction was stopped by addition of binding solution (IMAP-FP, Molecular Devices, comprised of 80% Solution A, 20% Solution B and a 1:600 dilution of binding reagent) to each well. The plates were shaken then incubated at room temperature for 1 h prior to determining the fluorescence polarization (mP) using a Perkin Elmer En Vision™ plate reader (Waltham, MA).
Fluorescence polarization (mP) was calculated from the parallel(S) and perpendicular (P) fluorescence of each sample well and the analogous values for the median control well, containing only substrate (So and Po), using the following equation: […]
Dose-inhibition profiles for each compound were characterized by fitting the mP data to a four-parameter equation given below. The apparent inhibition constant (KI), the maximum inhibition at the low plateau relative to “100% Inhibition Control” (Imax; e.g. 1=>same as this control), the minimum inhibition at the high plateau relative to the “0% Inhibition Control” (Imin, e.g. 0=>same as the no drug control) and the Hill slope (nH) are determined by a non-linear least squares fitting of the mP values as a function of dose of the compound using an in-house software based on the procedures described by Mosser et al., JALA, 2003, 8:54-63, using the following equation: […]
An apparent (Km) for FAM-labeled […] of 150 nM was determined in separate experiments through simultaneous variation of substrate and selected drug concentrations.

Human PDE9 (PDE9A2), sequence (O76083 other isoform, or with tags, fused parts or gaps): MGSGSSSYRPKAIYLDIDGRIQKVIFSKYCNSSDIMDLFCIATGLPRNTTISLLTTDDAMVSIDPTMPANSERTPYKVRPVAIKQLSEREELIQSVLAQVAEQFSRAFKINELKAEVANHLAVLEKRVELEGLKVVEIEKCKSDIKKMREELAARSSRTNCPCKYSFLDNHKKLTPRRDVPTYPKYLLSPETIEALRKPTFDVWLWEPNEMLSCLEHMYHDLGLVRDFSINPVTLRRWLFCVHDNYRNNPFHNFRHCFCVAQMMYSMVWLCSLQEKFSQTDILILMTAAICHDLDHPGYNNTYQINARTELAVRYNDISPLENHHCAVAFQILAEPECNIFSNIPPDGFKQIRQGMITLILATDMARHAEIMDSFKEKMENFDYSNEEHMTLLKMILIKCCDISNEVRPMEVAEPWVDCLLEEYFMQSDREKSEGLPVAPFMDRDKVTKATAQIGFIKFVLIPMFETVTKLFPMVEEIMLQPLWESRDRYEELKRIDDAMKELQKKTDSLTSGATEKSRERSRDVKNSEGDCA

SMILES | Ki
CCC(c1ncc(F)cn1)N(C)c1nc2c(c(C#N)nn2C(C)C2CCOCC2)c(=O)[nH]1 (single isomer, unassigned) [Example 40, 6-[1-(5-fluoropyrimidin-2-yl)propyl-methyl-amino]-4-oxo-1-(1-tetrahydropyran-4-ylethyl)-5H-pyrazolo[3,4-d]pyrimidine-3-carbonitrile] | 33.2 nM
C=CCCC(c1ncccn1)N(C)c1nc2c(c(C#N)nn2C(C)c2ccc(C(F)(F)F)nc2)c(=O)[nH]1 (single isomer, unassigned) [Example 41, 6-[methyl(1-pyrimidin-2-ylpent-4-enyl)amino]-4-oxo-1-[1-[6-(trifluoromethyl)-3-pyridyl]ethyl]-5H-pyrazolo[3,4-d]pyrimidine-3-carbonitrile] | 0.42 nM
C=CCCC(c1ncccn1)N(C)c1nc2c(c(C#N)nn2C(C)c2ccc(C(F)(F)F)nc2)c(=O)[nH]1 (single isomer, unassigned) [Example 42, 6-[methyl(1-pyrimidin-2-ylpent-4-enyl)amino]-4-oxo-1-[1-[6-(trifluoromethyl)-3-pyridyl]ethyl]-5H-pyrazolo[3,4-d]pyrimidine-3-carbonitrile] | 13.2 nM
C=CCCC(c1ncccn1)N(C)c1nc2c(c(C#N)nn2C(C)c2ccc(C(F)(F)F)nc2)c(=O)[nH]1 (single isomer, unassigned) [Example 43, 6-[methyl(1-pyrimidin-2-ylpent-4-enyl)amino]-4-oxo-1-[1-[6-(trifluoromethyl)-3-pyridyl]ethyl]-5H-pyrazolo[3,4-d]pyrimidine-3-carbonitrile] | 38.8 nM
C=CCCC(c1ncccn1)N(C)c1nc2c(c(C#N)nn2C(C)c2ccc(C(F)(F)F)nc2)c(=O)[nH]1 (single isomer, unassigned) [Example 44, 6-[methyl(1-pyrimidin-2-ylpent-4-enyl)amino]-4-oxo-1-[1-[6-(trifluoromethyl)-3-pyridyl]ethyl]-5H-pyrazolo[3,4-d]pyrimidine-3-carbonitrile] | 19.6 nM
CC(c1ccc(C(F)(F)F)nc1)n1nc(C#N)c2c(=O)[nH]c(N3CCC3c3ncccn3)nc21 (single isomer, unassigned) [Example 45, 4-oxo-6-(2-pyrimidin-2-ylazetidin-1-yl)-1-[1-[6-(trifluoromethyl)-3-pyridyl]ethyl]-5H-pyrazolo[3,4-d]pyrimidine-3-carbonitrile] | 0.23 nM
CC(c1ccc(C(F)(F)F)nc1)n1nc(C#N)c2c(=O)[nH]c(N3CCC3c3ncccn3)nc21 (single isomer, unassigned) [Example 46, 4-oxo-6-(2-pyrimidin-2-ylazetidin-1-yl)-1-[1-[6-(trifluoromethyl)-3-pyridyl]ethyl]-5H-pyrazolo[3,4-d]pyrimidine-3-carbonitrile] | 21.4 nM
CC(c1ccc(C(F)(F)F)nc1)n1nc(C#N)c2c(=O)[nH]c(N3CCC3c3ncccn3)nc21 (single isomer, unassigned) [Example 47, 4-oxo-6-(2-pyrimidin-2-ylazetidin-1-yl)-1-[1-[6-(trifluoromethyl)-3-pyridyl]ethyl]-5H-pyrazolo[3,4-d]pyrimidine-3-carbonitrile] | 22.7 nM
CC(c1ccc(C(F)(F)F)nc1)n1nc(C#N)c2c(=O)[nH]c(N3CCC3c3ncccn3)nc21 (single isomer, unassigned) [Example 48, 4-oxo-6-(2-pyrimidin-2-ylazetidin-1-yl)-1-[1-[6-(trifluoromethyl)-3-pyridyl]ethyl]-5H-pyrazolo[3,4-d]pyrimidine-3-carbonitrile] | 17.4 nM
CC(c1ccc(C(F)(F)F)nc1)n1nc(C#N)c2c(=O)[nH]c(N3CCC3c3ccc(F)cc3)nc21 (single isomer, unassigned) [Example 49, 6-[2-(4-fluorophenyl)azetidin-1-yl]-4-oxo-1-[1-[6-(trifluoromethyl)-3-pyridyl]ethyl]-5H-pyrazolo[3,4-d]pyrimidine-3-carbonitrile] | 22.7 nM
CC(c1ccc(C(F)(F)F)nc1)n1nc(C#N)c2c(=O)[nH]c(N3CCC3c3ccc(F)cc3)nc21 (single isomer, unassigned) [Example 50, 6-[2-(4-fluorophenyl)azetidin-1-yl]-4-oxo-1-[1-[6-(trifluoromethyl)-3-pyridyl]ethyl]-5H-pyrazolo[3,4-d]pyrimidine-3-carbonitrile] | 0.6 nM
CC(c1ccc(C(F)(F)F)nc1)n1nc(C#N)c2c(=O)[nH]c(N3CCC3c3ccc(F)cc3)nc21 (single isomer, unassigned) [Example 51, 6-[2-(4-fluorophenyl)azetidin-1-yl]-4-oxo-1-[1-[6-(trifluoromethyl)-3-pyridyl]ethyl]-5H-pyrazolo[3,4-d]pyrimidine-3-carbonitrile] | 7.41 nM
CC(c1ccc(C(F)(F)F)nc1)n1nc(C#N)c2c(=O)[nH]c(N3CCC3c3ccc(F)cc3)nc21 (single isomer, unassigned) [Example 52, 6-[2-(4-fluorophenyl)azetidin-1-yl]-4-oxo-1-[1-[6-(trifluoromethyl)-3-pyridyl]ethyl]-5H-pyrazolo[3,4-d]pyrimidine-3-carbonitrile] | 6.7 nM
CC(c1ccc(C(F)(F)F)nc1)n1nc(C#N)c2c(=O)[nH]c(N3CCCC3c3ncccn3)nc21 (single isomer, unassigned) [Example 53, 4-oxo-6-(2-pyrimidin-2-ylpyrrolidin-1-yl)-1-[1-[6-(trifluoromethyl)-3-pyridyl]ethyl]-5H-pyrazolo[3,4-d]pyrimidine-3-carbonitrile] | 207 nM
CC(c1ccc(C(F)(F)F)nc1)n1nc(C#N)c2c(=O)[nH]c(N3CCCC3c3ncccn3)nc21 (single isomer, unassigned) [Example 54, 4-oxo-6-(2-pyrimidin-2-ylpyrrolidin-1-yl)-1-[1-[6-(trifluoromethyl)-3-pyridyl]ethyl]-5H-pyrazolo[3,4-d]pyrimidine-3-carbonitrile] | 6.53 nM
CC(c1ccc(C(F)(F)F)nc1)n1nc(C#N)c2c(=O)[nH]c(N3CCCC3c3ncccn3)nc21 (single isomer, unassigned) [Example 55, 4-oxo-6-(2-pyrimidin-2-ylpyrrolidin-1-yl)-1-[1-[6-(trifluoromethyl)-3-pyridyl]ethyl]-5H-pyrazolo[3,4-d]pyrimidine-3-carbonitrile] | 124 nM
CC(c1ccc(C(F)(F)F)nc1)n1nc(C#N)c2c(=O)[nH]c(N3CCCC3c3ncccn3)nc21 (single isomer, unassigned) [Example 56, 4-oxo-6-(2-pyrimidin-2-ylpyrrolidin-1-yl)-1-[1-[6-(trifluoromethyl)-3-pyridyl]ethyl]-5H-pyrazolo[3,4-d]pyrimidine-3-carbonitrile] | 289 nM
CC(c1ccc(C(F)(F)F)nc1)n1nc(C#N)c2c(=O)[nH]c(N3CCC3c3ccc(F)cc3)nc21 (single isomer, unassigned) [Example 57, 6-[2-(4-fluorophenyl)azetidin-1-yl]-4-oxo-1-[1-[6-(trifluoromethyl)-3-pyridyl]ethyl]-5H-pyrazolo[3,4-d]pyrimidine-3-carbonitrile] | 1.05 nM
CC(c1ccc(C(F)(F)F)nc1)n1nc(C#N)c2c(=O)[nH]c(N3CCC3c3ccc(F)cc3)nc21 (single isomer, unassigned) [Example 58, 6-[2-(4-fluorophenyl)azetidin-1-yl]-4-oxo-1-[1-[6-(trifluoromethyl)-3-pyridyl]ethyl]-5H-pyrazolo[3,4-d]pyrimidine-3-carbonitrile] | 7.8 nM
CCC(c1ncc(F)cn1)N(C)c1nc2c(c(C#N)nn2C(C)c2ccc(C3CC3)nc2)c(=O)[nH]1 (single isomer, unassigned) [Example 63, 1-[1-(6-cyclopropyl-3-pyridyl)ethyl]-6-[1-(5-fluoropyrimidin-2-yl)propyl-methyl-amino]-4-oxo-5H-pyrazolo[3,4-d]pyrimidine-3-carbonitrile] | 14.7 nM
